Test results: US8318504B2, “MRP2 efflux pathway prognostic method” (priority 2009, dated 2012)

How the values were obtained:
[1] = biological target: T1, ABCB11 (Homo sapiens, UniProt O95342); assay: ATP-dependent transport of CLF into Sf21 membrane vesicles containing ABCB11; format: biochemical; settings: compared with control vesicles
T1 construct: His tag (inferred from the anti-his probe used on the Western blot); made in house; host or cells: Sf21 insect cells, baculovirus (gift from Thompson); plasma membrane vesicles
T1 sequence (O95342 whole entry): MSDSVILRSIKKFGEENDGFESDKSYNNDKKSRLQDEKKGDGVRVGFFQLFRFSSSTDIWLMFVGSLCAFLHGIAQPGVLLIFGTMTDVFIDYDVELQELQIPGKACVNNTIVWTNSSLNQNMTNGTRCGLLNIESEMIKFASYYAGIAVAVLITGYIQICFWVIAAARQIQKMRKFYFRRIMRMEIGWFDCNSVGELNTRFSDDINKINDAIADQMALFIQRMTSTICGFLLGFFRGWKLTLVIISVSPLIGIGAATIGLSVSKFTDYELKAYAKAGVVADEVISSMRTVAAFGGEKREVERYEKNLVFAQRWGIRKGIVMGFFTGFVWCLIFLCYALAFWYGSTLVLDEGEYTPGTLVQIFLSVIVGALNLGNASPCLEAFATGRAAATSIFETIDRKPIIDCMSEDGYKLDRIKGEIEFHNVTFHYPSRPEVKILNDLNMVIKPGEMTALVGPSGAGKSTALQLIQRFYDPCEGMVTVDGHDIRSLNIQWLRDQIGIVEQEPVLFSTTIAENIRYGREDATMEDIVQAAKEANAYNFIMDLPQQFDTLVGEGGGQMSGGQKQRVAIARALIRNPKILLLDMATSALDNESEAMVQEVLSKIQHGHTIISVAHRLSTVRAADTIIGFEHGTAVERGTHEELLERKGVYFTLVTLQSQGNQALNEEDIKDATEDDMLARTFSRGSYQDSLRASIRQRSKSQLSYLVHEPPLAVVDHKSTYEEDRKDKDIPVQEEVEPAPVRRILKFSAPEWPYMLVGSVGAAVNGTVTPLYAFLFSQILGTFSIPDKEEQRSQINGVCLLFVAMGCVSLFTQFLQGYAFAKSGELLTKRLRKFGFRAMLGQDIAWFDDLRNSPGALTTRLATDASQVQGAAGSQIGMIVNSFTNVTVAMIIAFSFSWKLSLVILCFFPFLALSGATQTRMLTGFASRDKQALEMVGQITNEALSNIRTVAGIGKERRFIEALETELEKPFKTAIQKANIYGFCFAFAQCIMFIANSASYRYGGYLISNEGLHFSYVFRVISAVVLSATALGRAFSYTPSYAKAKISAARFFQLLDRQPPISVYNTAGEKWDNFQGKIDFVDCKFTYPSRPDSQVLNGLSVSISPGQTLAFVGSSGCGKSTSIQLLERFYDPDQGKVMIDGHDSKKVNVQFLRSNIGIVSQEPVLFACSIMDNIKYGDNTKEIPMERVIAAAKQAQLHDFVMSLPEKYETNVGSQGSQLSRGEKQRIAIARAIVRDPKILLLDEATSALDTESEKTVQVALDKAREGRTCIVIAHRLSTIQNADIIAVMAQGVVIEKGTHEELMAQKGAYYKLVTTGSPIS
Protocol: The production of recombinant baculovirus was as described by de Waart et al. [Liver Int 2006 April; 26(3):362-368]. ABCC3 and ABCG2-recombinant baculovirus were a kind gift from Borst [Breedveld P. et al., Cancer Res 2004 Aug. 15; 64(16):5804-5811 and Borst P. et al., J Biol Chem 2001 Dec. 7; 276(49):46400-46407.]. ABCB11-recombinant baculovirus was a kind gift from Thompson [Thompson R J et al., Gastroenterology 2002 November; 123(5):1649-1658]. Sf21 cells grown at 27° C. were infected with ABCB11, ABCC2, ABCC3 and ABCG2-cDNA containing baculovirus. Cells were harvested at 2-4 days after infection. Membrane vesicle preparation was as described by de Waart et al. [Liver Int 2006 April; 26(3):362-368].
Transport studies with membrane vesicles were performed using the rapid filtration technique as described by Heijn M et al. [Am J Physiol 1992 January; 262(1 Pt 1):C104-C110]. Radiolabel was measured with a scintillation counter. When CLF was used as a probe, filters were placed in a glass tube, 0.1% Triton-X-100 was added and the tubes vortexed. Samples were pipetted in 96-well plates (Kartell, Noviglio, Italy) and the amount CLF quantitated by measurement of fluorescence at λexe 485 nm and λcm 520 nm using a NovoStar (BMG-labtech, Offenburg, Germany).

[2] = biological target: T2, OATP1B3 (Homo sapiens, UniProt Q9NPD5); assay: Uptake of CLF into CHO cells expressing OATP1B3; format: cell-based; parameters: Vmax of OATP1B3 mediated CLF transport: unit not given here
T2 construct: expressed in transfected cells; host or cells: CHO cells (stably transfected; Treiber et al. 2007)
T2 sequence (Q9NPD5 1-702): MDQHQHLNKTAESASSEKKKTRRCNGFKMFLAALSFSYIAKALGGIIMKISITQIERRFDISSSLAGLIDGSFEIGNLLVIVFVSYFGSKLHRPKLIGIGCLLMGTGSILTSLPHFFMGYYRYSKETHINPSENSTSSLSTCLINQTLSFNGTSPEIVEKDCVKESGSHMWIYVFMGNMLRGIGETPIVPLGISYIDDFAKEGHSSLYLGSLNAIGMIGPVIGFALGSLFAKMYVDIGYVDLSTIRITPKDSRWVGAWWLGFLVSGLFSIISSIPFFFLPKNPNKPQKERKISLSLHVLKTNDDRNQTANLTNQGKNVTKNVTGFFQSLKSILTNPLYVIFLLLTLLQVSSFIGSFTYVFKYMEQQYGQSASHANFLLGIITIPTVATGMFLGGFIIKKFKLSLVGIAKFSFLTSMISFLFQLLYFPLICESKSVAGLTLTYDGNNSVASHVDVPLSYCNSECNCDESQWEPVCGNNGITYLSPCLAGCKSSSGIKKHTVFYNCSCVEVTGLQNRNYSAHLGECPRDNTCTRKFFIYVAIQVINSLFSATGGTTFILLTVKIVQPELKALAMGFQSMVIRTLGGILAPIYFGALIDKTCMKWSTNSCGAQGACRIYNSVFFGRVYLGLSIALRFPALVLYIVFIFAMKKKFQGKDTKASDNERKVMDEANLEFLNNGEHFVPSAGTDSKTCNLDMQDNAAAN
Protocol: cDNA for human NTCP [Hagenbuch et al., J Clin Invest 1994 March; 93(3): 1326-1331] was cut with EcoRV and HindI and the coding region ligated into pcDNA5/FRT (Invitrogen, Life-Technologies, Carlsbad, Calif.). CHO FlpIn cells (Invitrogen, Life-Technologies) were transfected with the resulting construct using Lipofectamine® 2000 (Invitrogen, Life-Technologies). Stably transfected cells were selected with 550 μg Hygromycin-B in HAM-F12 medium (Gibco, Invitrogen, Life-Technologies). Transfected cells were cloned with the limiting dilution method. […] To further characterize the cloned cells, immunofluorescence localization of NTCP using a polyclonal antibody against NTCP [Kullak-Ublick G et al., Gastroenterology 1997 October; 113(4):1295-1305] was performed as described by Huber R D et al. [Am J Physiol Cell Physiol 2007 February; 292(2):[…]-[…]]. CHO cells expressing OATP1B1, OATP1B3 and OATP2B1 were described previously [Treiber et al., DMD 35:1400-1407, 2007]. For all transport experiments, cells grown on 3 cm culture dishes were cultured for 24 hours in media supplemented with 5 mmol/L sodium-butyrate to increase expression levels of transfected transporters [Palermo D P et al., J Biotechnol 1991 June; 19(1):35-47]. • Transport experiments with uptake of radioactively labeled substrates: These experiments were performed as described by Huber R D et al. […] Uptake was performed in the same buffers as for the radioactive substrates above. For visualization of CLF uptake, cells were immediately inspected with a Leica-DM-IRBE-inverted-microcope (Leica-Microsystems, Wetzlar, Germany) equipped with a Hamamatsu-ORKA-ER-camera (Hamamatsu-Photonoics, Japan). To determine uptake of CLF, cells were solubilized by the addition of 2 ml 1% (w/v) Triton-X-100. After complete solubilization, 1.5 ml was used to measure fluorescence in a Perkin-Elmer LS-5 luminescence-spectrometer set at λexe 486 nm (slit 10 nm) and λem 520 nm (slit 5 nm). Protein was determined with the bicinchoninic acid method using a kit from Interchim (Montfuçon, France). […]

## CC(CCC(=O)NC(CCCCNC(=S)Nc1ccc(-c2c3ccc(=O)cc-3oc3cc(O)ccc23)c(C(=O)O)c1)C(=O)O)C1CCC2C3C(O)CC4CC(O)CCC4(C)C3CC(O)C12C (stereo not shown) [CLF, cholyl lysyl fluorescein]
[1]
  ATP-dependent transport of CLF in ABCB11 containing membrane vesicles: not higher than in control vesicles
[2]; 1 μmol/L CLF, 1 or 5 minutes
  uptake of CLF into OATP1B3 expressing cells: clear uptake
[2]; 45 seconds, mean of three independent determinations
  Vmax of OATP1B3 mediated CLF transport: 213±42
[2]; human, CHO cells expressing OATP1B3, 45 seconds, mean of three independent determinations, read-out: Km of OATP1B3 mediated CLF transport
  Km at 45 seconds: 4.6 ± 2.7 µM
